ChEMBL document CHEMBL3885861, “Open TG-GATES”

Species on record: Rattus norvegicus
Experiment: Open TG-GATES - Regimen: Daily Repeat
Assay type: toxicity, organism-based, Sprague-Dawley
Design: regimen Daily Repeat, gender Male, age 6 weeks
Conditions: in vivo, po, 300 mg/kg, route gavage, dose level Middle; for APTT / Bas / Eos / Fbg / Hb / Ht / Lym / MCH / MCHC / MCV / Mono / Neu / PT / Plat / RBC / Ret / WBC: tissue Blood; for KIDNEY_L / KIDNEY_R / KIDNEY_TOTAL: tissue Kidney; for LIVER: tissue Liver; for A/G / ALP / ALT / AST / BUN / CRE / Ca / Cl / DBIL / GLC / IP / K / LDH / Na / PL / RALB / TBIL / TC / TG / TP / gamma-GTP: tissue Plasma

`CC(=O)[C@@]1(O)CC[C@H]2[C@@H]3C=C(Cl)C4=CC(=O)CC[C@]4(C)[C@H]3CC[C@@]21C` [CHLORMADINONE] showed a TERMINAL_BW (72 h, time 3 day) of 228.1 g, an APTT (72 h, time 3 day) of 27.6 s and a Bas (72 h, time 3 day) of 0%. It also gave an Eos (72 h, time 3 day) of 1%, a Fbg (72 h, time 3 day) of 334.4 mg/dL and a Hb (72 h, time 3 day) of 14.1 g/dL. It also gave a Ht (72 h, time 3 day) of 42.3%, a Lym (72 h, time 3 day) of 76.8% and an MCH (72 h, time 3 day) of 20.6 pg. The MCHC (72 h, time 3 day) was 33.2%, the MCV (72 h, time 3 day) was 62 fL and the Mono (72 h, time 3 day) was 3.4%. It also gave a Neu (72 h, time 3 day) of 18.4%, a PT (72 h, time 3 day) of 14.8 s and a Plat (72 h, time 3 day) of 130.2 x10_4/uL. It also gave an RBC (72 h, time 3 day) of 684 x10_4/ul, a Ret (72 h, time 3 day) of 5.9% and a WBC (72 h, time 3 day) of 96.1 x10_2/uL. It also gave a KIDNEY_L (72 h, time 3 day) of 1 g, a KIDNEY_R (72 h, time 3 day) of 1 g and a KIDNEY_TOTAL (72 h, time 3 day) of 1.9 g. The LIVER (72 h, time 3 day) was 11 g, the A/G (72 h, time 3 day) was 1.2 and the ALP (72 h, time 3 day) was 1623.2 IU/L. For the same molecule, the ALT (72 h, time 3 day) was 51 IU/L, the AST (72 h, time 3 day) was 76.4 IU/L and the BUN (72 h, time 3 day) was 17.2 mg/dL. The CRE (72 h, time 3 day) was 0.2 mg/dL, the Ca (72 h, time 3 day) was 11 mg/dL and the Cl (72 h, time 3 day) was 106 meq/L. It also gave a DBIL (72 h, time 3 day) of 0 mg/dL, a GLC (72 h, time 3 day) of 194.2 mg/dL and an IP (72 h, time 3 day) of 7.5 mg/dL. The K (72 h, time 3 day) was 4.6 meq/L, the LDH (72 h, time 3 day) was 243.2 IU/L and the Na (72 h, time 3 day) was 141.4 meq/L. The PL (72 h, time 3 day) was 172.4 mg/dL, the RALB (72 h, time 3 day) was 3.2 g/dL and the TBIL (72 h, time 3 day) was 0.008 mg/dL. For the same molecule, the TC (72 h, time 3 day) was 77 mg/dL, the TG (72 h, time 3 day) was 181.4 mg/dL and the TP (72 h, time 3 day) was 5.8 g/dL. It also gave a gamma-GTP (72 h, time 3 day) of 1.4 IU/L, a TERMINAL_BW ([…], time 7 day) of 257.8 g and a TERMINAL_BW ([…], time 14 day) of 297.5 g. The TERMINAL_BW ([…], time 28 day) was 346.1 g, the APTT ([…], time 7 day) was 29.5 s and the Bas ([…], time 7 day) was 0%. It also gave an Eos ([…], time 7 day) of 0.6%, a Fbg ([…], time 7 day) of 335.8 mg/dL and a Hb ([…], time 7 day) of 14.7 g/dL. It also gave a Ht ([…], time 7 day) of 42.9%, a Lym ([…], time 7 day) of 86% and an MCH ([…], time 7 day) of 20.8 pg. For the same molecule, the MCHC ([…], time 7 day) was 34.2%, the MCV ([…], time 7 day) was 60.9 fL and the Mono ([…], time 7 day) was 2.4%. It also gave a Neu ([…], time 7 day) of 10.2%, a PT ([…], time 7 day) of 14.8 s and a Plat ([…], time 7 day) of 129.9 x10_4/uL. For the same molecule, the RBC ([…], time 7 day) was 704.2 x10_4/ul, the Ret ([…], time 7 day) was 4.3% and the WBC ([…], time 7 day) was 119.7 x10_2/uL. The APTT ([…], time 14 day) was 28.4 s, the Bas ([…], time 14 day) was 0% and the Eos ([…], time 14 day) was 1%. It also gave a Fbg ([…], time 14 day) of 326.6 mg/dL, a Hb ([…], time 14 day) of 15.2 g/dL and a Ht ([…], time 14 day) of 44.7%. The Lym ([…], time 14 day) was 78%, the MCH ([…], time 14 day) was 19.3 pg and the MCHC ([…], time 14 day) was 34%. For the same molecule, the MCV ([…], time 14 day) was 56.8 fL, the Mono ([…], time 14 day) was 2.6% and the Neu ([…], time 14 day) was 17.6%. For the same molecule, the PT ([…], time 14 day) was 14.8 s, the Plat ([…], time 14 day) was 105.8 x10_4/uL and the RBC ([…], time 14 day) was 787.4 x10_4/ul. The Ret ([…], time 14 day) was 3.1%, the WBC ([…], time 14 day) was 84.6 x10_2/uL and the APTT ([…], time 28 day) was 28 s. The Bas ([…], time 28 day) was 0%, the Eos ([…], time 28 day) was 1% and the Fbg ([…], time 28 day) was 313.2 mg/dL. For the same molecule, the Hb ([…], time 28 day) was 16.2 g/dL, the Ht ([…], time 28 day) was 46.4% and the Lym ([…], time 28 day) was 82.8%. It also gave an MCH ([…], time 28 day) of 18.9 pg, an MCHC ([…], time 28 day) of 34.9% and an MCV ([…], time 28 day) of 54 fL. It also gave a Mono ([…], time 28 day) of 2.2%, a Neu ([…], time 28 day) of 12.8% and a PT ([…], time 28 day) of 14.8 s. For the same molecule, the Plat ([…], time 28 day) was 92.9 x10_4/uL, the RBC ([…], time 28 day) was 860 x10_4/ul and the Ret ([…], time 28 day) was 2%. For the same molecule, the WBC ([…], time 28 day) was 105.1 x10_2/uL, the KIDNEY_L ([…], time 7 day) was 1 g and the KIDNEY_R ([…], time 7 day) was 1 g. For the same molecule, the KIDNEY_TOTAL ([…], time 7 day) was 2.1 g, the KIDNEY_L ([…], time 14 day) was 1.1 g and the KIDNEY_R ([…], time 14 day) was 1.1 g. The KIDNEY_TOTAL ([…], time 14 day) was 2.2 g, the KIDNEY_L ([…], time 28 day) was 1.2 g and the KIDNEY_R ([…], time 28 day) was 1.2 g. It also gave a KIDNEY_TOTAL ([…], time 28 day) of 2.4 g, an LIVER ([…], time 7 day) of 12.6 g and an LIVER ([…], time 14 day) of 13.1 g. For the same molecule, the LIVER ([…], time 28 day) was 13.4 g, the A/G ([…], time 7 day) was 1.1 and the ALP ([…], time 7 day) was 1379.4 IU/L. The ALT ([…], time 7 day) was 53 IU/L, the AST ([…], time 7 day) was 70.8 IU/L and the BUN ([…], time 7 day) was 19.4 mg/dL. The CRE ([…], time 7 day) was 0.2 mg/dL, the Ca ([…], time 7 day) was 10.9 mg/dL and the Cl ([…], time 7 day) was 105.2 meq/L. The DBIL ([…], time 7 day) was 0 mg/dL, the GLC ([…], time 7 day) was 194.6 mg/dL and the IP ([…], time 7 day) was 7.4 mg/dL. The K ([…], time 7 day) was 4.6 meq/L, the LDH ([…], time 7 day) was 198.8 IU/L and the Na ([…], time 7 day) was 139.4 meq/L. For the same molecule, the PL ([…], time 7 day) was 182.2 mg/dL, the RALB ([…], time 7 day) was 3.2 g/dL and the TBIL ([…], time 7 day) was 0 mg/dL. For the same molecule, the TC ([…], time 7 day) was 91.2 mg/dL, the TG ([…], time 7 day) was 205.8 mg/dL and the TP ([…], time 7 day) was 6 g/dL. The gamma-GTP ([…], time 7 day) was 1.8 IU/L, the A/G ([…], time 14 day) was 1.1 and the ALP ([…], time 14 day) was 1447.6 IU/L. The ALT ([…], time 14 day) was 44.2 IU/L, the AST ([…], time 14 day) was 67 IU/L and the BUN ([…], time 14 day) was 20 mg/dL. For the same molecule, the CRE ([…], time 14 day) was 0.2 mg/dL, the Ca ([…], time 14 day) was 10.5 mg/dL and the Cl ([…], time 14 day) was 106.8 meq/L. For the same molecule, the DBIL ([…], time 14 day) was 0 mg/dL, the GLC ([…], time 14 day) was 196.2 mg/dL and the IP ([…], time 14 day) was 6.9 mg/dL. The K ([…], time 14 day) was 4.5 meq/L, the LDH ([…], time 14 day) was 161.4 IU/L and the Na ([…], time 14 day) was 141.4 meq/L. It also gave a PL ([…], time 14 day) of 171.6 mg/dL, an RALB ([…], time 14 day) of 3.1 g/dL and a TBIL ([…], time 14 day) of 0.002 mg/dL. The TC ([…], time 14 day) was 83.8 mg/dL, the TG ([…], time 14 day) was 173 mg/dL and the TP ([…], time 14 day) was 6 g/dL. It also gave a gamma-GTP ([…], time 14 day) of 1.8 IU/L, an A/G ([…], time 28 day) of 1.1 and an ALP ([…], time 28 day) of 1248.8 IU/L. For the same molecule, the ALT ([…], time 28 day) was 61.6 IU/L, the AST ([…], time 28 day) was 76.6 IU/L and the BUN ([…], time 28 day) was 19.4 mg/dL. The CRE ([…], time 28 day) was 0.2 mg/dL, the Ca ([…], time 28 day) was 10.6 mg/dL and the Cl ([…], time 28 day) was 105.6 meq/L. For the same molecule, the DBIL ([…], time 28 day) was 0 mg/dL, the GLC ([…], time 28 day) was 186.8 mg/dL and the IP ([…], time 28 day) was 6 mg/dL. The K ([…], time 28 day) was 4 meq/L, the LDH ([…], time 28 day) was 156.2 IU/L and the Na ([…], time 28 day) was 141.2 meq/L. It also gave a PL ([…], time 28 day) of 171 mg/dL, an RALB ([…], time 28 day) of 3.3 g/dL and a TBIL ([…], time 28 day) of 0.012 mg/dL. The TC ([…], time 28 day) was 89.2 mg/dL, the TG ([…], time 28 day) was 153.6 mg/dL and the TP ([…], time 28 day) was 6.3 g/dL. For the same molecule, the gamma-GTP ([…], time 28 day) was 2.4 IU/L.
